Measurements: ChEMBL document CHEMBL6153040, “Discovery of the salicylaldehyde-based compound DDO-02267 as a lysine-targeting covalent inhibitor of ALKBH5” (Eur J Med Chem, 2025)
The source made the active and inactive calls. The calls are words filed in the database; no cut-off is given here.

Columns and labels:
MOLM-13 [1] = assay: Induction of apoptosis in human MOLM-13 cells assessed as viable cells at 40 uM incubated for 72 hrs by Annexin V FITC/PI staining based flow cytometry analysis (reference value: 89.65%); format: functional; details: read-out: Activity
RNA demethylase ALKBH5 [2] = target: T1, RNA demethylase ALKBH5 (Homo sapiens, UniProt Q6P6C2); assay: Covalent binding affinity to ALKBH5 (66 to 292 residues) (unknown origin) extracted from Escherichia coli BL21 (DE3) cells at Lys132 residue by HPLC-MS/MS analysis
Target sequence in this assay (Q6P6C2 2-394 limits assumed): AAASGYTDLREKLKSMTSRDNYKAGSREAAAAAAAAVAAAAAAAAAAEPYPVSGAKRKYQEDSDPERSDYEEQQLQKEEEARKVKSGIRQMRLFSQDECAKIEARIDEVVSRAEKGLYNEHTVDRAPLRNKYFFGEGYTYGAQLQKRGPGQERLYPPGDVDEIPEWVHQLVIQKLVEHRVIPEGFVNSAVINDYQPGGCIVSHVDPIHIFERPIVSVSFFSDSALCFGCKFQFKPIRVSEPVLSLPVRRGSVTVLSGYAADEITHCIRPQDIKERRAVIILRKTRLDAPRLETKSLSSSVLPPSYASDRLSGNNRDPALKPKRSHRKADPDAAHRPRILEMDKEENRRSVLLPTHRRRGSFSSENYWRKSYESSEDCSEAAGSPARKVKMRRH

MOLM-13 [3] = assay: Induction of apoptosis in human MOLM-13 cells assessed as late apoptotic cells at 40 uM incubated for 72 hrs by Annexin V FITC/PI staining based flow cytometry analysis (reference value: 4.28 %); format: functional
MOLM-13 [4] = assay: Induction of apoptosis in human MOLM-13 cells assessed as necrotic cells at 40 uM incubated for 72 hrs by Annexin V FITC/PI staining based flow cytometry analysis (reference value: 1.75 %); format: functional
[5] = target: T2, Alpha-ketoglutarate-dependent dioxygenase alkB homolog 3 (Homo sapiens, UniProt Q96Q83); assay: Inhibition of ALKBH3 (unknown origin) by restriction enzyme digestion method
T2 sequence (Q96Q83 whole entry): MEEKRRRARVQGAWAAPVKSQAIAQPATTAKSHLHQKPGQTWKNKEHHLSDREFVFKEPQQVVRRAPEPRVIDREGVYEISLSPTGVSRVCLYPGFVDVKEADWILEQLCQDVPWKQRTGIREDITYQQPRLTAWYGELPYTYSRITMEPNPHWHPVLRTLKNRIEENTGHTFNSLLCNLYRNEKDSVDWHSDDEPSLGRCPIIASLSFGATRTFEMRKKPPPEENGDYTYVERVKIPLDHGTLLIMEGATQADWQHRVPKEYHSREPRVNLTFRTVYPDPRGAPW

RNA demethylase ALKBH5 [6] = target: T1, RNA demethylase ALKBH5; assay: Inhibition of ALKBH5 (66 to 292 residues) (unknown origin) extracted from Escherichia coli BL21 (DE3) cells using m6A ssDNA as substrate measured after 6 hrs by fluorescence polarization assay
Target sequence in this assay (Q6P6C2 whole entry, the tested form may be a part): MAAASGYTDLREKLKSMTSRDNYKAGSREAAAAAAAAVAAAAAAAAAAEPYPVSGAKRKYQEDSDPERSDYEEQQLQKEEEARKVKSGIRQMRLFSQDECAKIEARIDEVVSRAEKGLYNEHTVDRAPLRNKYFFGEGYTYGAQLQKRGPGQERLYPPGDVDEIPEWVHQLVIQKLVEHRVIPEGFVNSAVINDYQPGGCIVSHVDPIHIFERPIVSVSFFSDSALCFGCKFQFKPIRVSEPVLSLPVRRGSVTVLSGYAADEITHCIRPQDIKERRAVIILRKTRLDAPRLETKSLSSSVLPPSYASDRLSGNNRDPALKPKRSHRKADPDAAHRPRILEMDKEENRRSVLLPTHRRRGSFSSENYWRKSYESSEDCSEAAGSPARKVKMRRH

RNA demethylase ALKBH5 [7] = target: T1, RNA demethylase ALKBH5; assay: Inhibition of ALKBH5 (66 to 292 residues) (unknown origin) extracted from Escherichia coli BL21 (DE3) cells using m6A ssDNA as substrate measured after 300 mins by fluorescence polarization assay
Target sequence in this assay (Q6P6C2 whole entry, the tested form may be a part): as above

RNA demethylase ALKBH5 [8] = target: T1, RNA demethylase ALKBH5; assay: Binding affinity to ALKBH5 in human MOLM-13 cells assessed as protection of pronase-mediated protein degradation at 12.5 to 50 uM preincubated for 30 mins followed by protease addition and measured after 10 mins by DARTS method; format: cell-based; details: dose 12.5-50 µM, time 40.0 min
Target sequence in this assay (Q6P6C2 2-394 limits assumed): as the sequence (Q6P6C2 2-394 limits assumed) above

Structure (SMILES): O=Cc1cc(S(=O)(=O)NC(=O)c2cc(C(=O)O)ccn2)c2ccccc2c1O
- viability at 40 µM (MOLM-13 [1]): 83%
- Activity (RNA demethylase ALKBH5 [2]): Active
- Activity (MOLM-13 [3]): 4.62%
- Activity (MOLM-13 [4]): 2.03%
- IC50 [5]: 75400 nM
- IC50 (RNA demethylase ALKBH5 [6]): 170 nM
- IC50 (RNA demethylase ALKBH5 [7]): 200 nM
- Activity (RNA demethylase ALKBH5 [8]): Active
